Measurements as given in patent publication US12207654B2, “Bactericidal agent for agricultural or horticultural use, plant disease control method, and product for plant disease control use” (Kureha Corporation, priority 2019, dated 2025).
Values joined by “and” are separate entries in the source; they are usually repeats but may differ in a detail not shown here. Equal values may be shown once. Read-outs that look alike come from different tables or passages of the source.

Experiments:
[1] = test system: wheat leaf rust (Puccinia recondita); test: Controlling effect test against wheat leaf rust (foliar spray on potted wheat seedlings); format: in vivo; conditions: sprayed alone
Fusarium fujikuroi = test: In vitro antimicrobial activity test on PDA plate media (colony diameter); format: cell-based; conditions: used alone
Pyrenophola teres = test: as above; conditions: read-out: Actual fungal growth inhibition rate (%)
Text: Apart from this, Pyrenophola teres pre-cultivated on chemical-free plate media was punched out with a 4-mm diameter cork borer and inoculated on chemical-containing PDA plate media.
In the above formula, R represents the fungal growth inhibition rate (%), dc represents the colony diameter on the chemical-free plate, and dt represents the colony diameter on the chemical-containing plate. […] Inhibition rate when mixed for use(theoretical value)=α+((100−α)×β/100
In the above formula, α and β represent the inhibition rate when each compound is used alone.

Fusarium graminearum = test: microbe, parasite or virus in culture; format: cell-based
Gaeumannomyces graminis = test: In vitro antimicrobial activity test on PDA plate media (colony diameter); format: cell-based; conditions: used alone
Glomerella cingulata = test: as above; format: cell-based; conditions: for inhibition at 0.01 ppm / inhibition at 0.03 ppm / inhibition at 0.13 ppm / inhibition at 0.5 ppm: Colletotrichum gloeosporioides, read-out: Actual fungal growth inhibition rate (%)
Pyrenophora graminea = test: as above; format: cell-based; conditions: used alone
[2] = test system: Colletotrichum lindemuthianum; test: In vitro antimicrobial activity test in 96-well microplate (absorbance at 620 nm); format: cell-based; conditions: used alone
Cercospora beticola = test: as above; format: cell-based; conditions: used alone
[3] = test system: Alternaria alternata apple pathotype; test: In vitro antimicrobial activity test on PDA plate media (colony diameter); format: cell-based; conditions: used alone
Microdocum nivale = test: as above; format: cell-based; conditions: used alone
Penicillium italicum = test: as above; format: cell-based
[4] = Fusarium fujikuroi, read-out: Actual fungal growth inhibition rate (%)
[5] = Fusarium graminearum, read-out: Actual fungal growth inhibition rate (%)
[6] = Gaeumannomyces graminis, 0.03 ppm, read-out: Actual fungal growth inhibition rate (%)
[7] = Gaeumannomyces graminis, 0.13 ppm, read-out: Actual fungal growth inhibition rate (%)
[8] = Pyrenophora graminea, 0.50 ppm, read-out: Actual fungal growth inhibition rate (%)
[9] = Gaeumannomyces graminis, 0.50 ppm, read-out: Actual fungal growth inhibition rate (%)
[10] = Alternaria alternata, 0.13 ppm, read-out: Actual fungal growth inhibition rate (%)

COC(=O)C(O)(Cn1cncn1)c1ccc(Oc2ccc(Cl)cc2)cc1Cl (stereo not shown) [Azole derivative I-1, methyl 2-hydroxy-2-(2-chloro-4-(4-chlorophenoxy)phenyl)-3-(1H-1,2,4-triazole-1-yl)propanoate]
Actual controlling rate ([1]; 0.63 g/ha): 16% and 11%
Actual controlling rate ([1]; 1.25 g/ha): 40% and 67%
Actual controlling rate ([1]; 2.5 g/ha): 83% and 98%
inhibition at 0.01 ppm (Fusarium fujikuroi; [4]): 0%
inhibition at 0.03 ppm (Fusarium fujikuroi; Fusarium fujikuroi, 0.03 ppm, read-out: Actual fungal growth inhibition rate (%)): 4%
inhibition at 0.5 ppm (Fusarium fujikuroi; Fusarium fujikuroi, 0.50 ppm, read-out: Actual fungal growth inhibition rate (%)): 59%
inhibition at 0.25 ppm (Pyrenophola teres): 48%
inhibition at 0.25 ppm (Fusarium graminearum; [5]): 0%
inhibition at 0.03 ppm (Gaeumannomyces graminis; [6]): 31%
inhibition at 0.13 ppm (Gaeumannomyces graminis; [7]): 94%
Actual fungal growth inhibition rate (%) (Gaeumannomyces graminis; 0.03 ppm): 28%
Actual fungal growth inhibition rate (%) (Gaeumannomyces graminis; 0.13 ppm): 93%
inhibition at 0.01 ppm (Glomerella cingulata; used alone, 0.01 ppm): 0%
inhibition at 0.03 ppm (Glomerella cingulata; used alone, 0.03 ppm): 9%
inhibition at 0.13 ppm (Glomerella cingulata; used alone, 0.13 ppm): 49%
inhibition at 0.5 ppm (Glomerella cingulata; used alone, 0.50 ppm): 77%
Actual fungal growth inhibition rate (%) (Glomerella cingulata; used alone, 0.50 ppm): 75%
inhibition at 0.01 ppm (Pyrenophora graminea; Pyrenophora graminea, 0.01 ppm, read-out: Actual fungal growth inhibition rate (%)): 37%
inhibition at 0.03 ppm (Pyrenophora graminea; Pyrenophora graminea, 0.03 ppm, read-out: Actual fungal growth inhibition rate (%)): 71%
inhibition at 0.5 ppm (Pyrenophora graminea; [8]): 94%
Actual fungal growth inhibition rate (%) (Pyrenophora graminea; 0.03 ppm): 70% and 68%
Actual fungal growth inhibition rate (%) (Pyrenophora graminea; 0.13 ppm): 81% and 80% and 57% and 82%
Actual fungal growth inhibition rate (%) (Pyrenophora graminea; 0.50 ppm): 95% and 93%
inhibition at 0.1 ppm ([2]; Colletotrichum lindemuthianum, 0.10 ppm, read-out: Actual growth inhibition rate): 0%
inhibition at 0.02 ppm (Cercospora beticola; Cercospora beticola, 0.02 ppm, read-out: Actual growth inhibition rate): 0%
inhibition at 0.5 ppm (Cercospora beticola; Cercospora beticola, 0.5 ppm, read-out: Actual growth inhibition rate): 6%
inhibition at 2.5 ppm (Cercospora beticola; Cercospora beticola, 2.5 ppm, read-out: Actual growth inhibition rate): 99%
inhibition at 0.01 ppm ([3]; Alternaria alternata, 0.01 ppm, read-out: Actual fungal growth inhibition rate (%)): 0%
inhibition at 0.03 ppm ([3]; Alternaria alternata, 0.03 ppm, read-out: Actual fungal growth inhibition rate (%)): 0%
Actual fungal growth inhibition rate (%) ([3]; 0.13 ppm): 1%

COC(=O)C(O)(Cn1cncn1)c1ccc(Oc2ccc(C(F)(F)F)cc2)cc1Cl (stereo not shown) [Azole derivative I-23]
Actual fungal growth inhibition rate (%) (Fusarium graminearum): 79%
Actual fungal growth inhibition rate (%) (Microdocum nivale; 0.01 ppm): 0%
Actual fungal growth inhibition rate (%) (Microdocum nivale; 0.13 ppm): 4% and 10%
Actual fungal growth inhibition rate (%) (Microdocum nivale; 0.50 ppm): 27% and 24%
Actual fungal growth inhibition rate (%) (Gaeumannomyces graminis; 0.01 ppm): 0%
Actual fungal growth inhibition rate (%) (Gaeumannomyces graminis; 0.03 ppm): 38%
Actual fungal growth inhibition rate (%) (Gaeumannomyces graminis; 0.08 ppm): 92%
Actual fungal growth inhibition rate (%) (Gaeumannomyces graminis; 5.00 ppm): 94%
Actual fungal growth inhibition rate (%) (Glomerella cingulata; used alone, 0.03 ppm): 9%
Actual fungal growth inhibition rate (%) (Glomerella cingulata; used alone, 0.13 ppm): 31%
Actual fungal growth inhibition rate (%) (Glomerella cingulata; used alone, 0.50 ppm): 61%
Actual fungal growth inhibition rate (%) (Pyrenophora graminea; 0.08 ppm): 73%
Actual fungal growth inhibition rate (%) (Pyrenophora graminea; 0.13 ppm): 81%
Actual fungal growth inhibition rate (%) (Pyrenophora graminea; 0.31 ppm): 92%
Actual fungal growth inhibition rate (%) (Pyrenophora graminea; 0.50 ppm): 91%
Actual fungal growth inhibition rate (%) (Pyrenophora graminea; 1.25 ppm): 95%
Actual fungal growth inhibition rate (%) (Penicillium italicum; used alone, 0.01 ppm): 6%
Actual fungal growth inhibition rate (%) (Penicillium italicum; used alone, 0.03 ppm): 12%
Actual fungal growth inhibition rate (%) (Penicillium italicum; used alone, 0.13 ppm): 35%
Actual fungal growth inhibition rate (%) (Penicillium italicum; used alone, 0.50 ppm): 52% and 43%
Actual fungal growth inhibition rate (%) ([3]; 0.03 ppm): 0%
Actual fungal growth inhibition rate (%) ([3]; 0.13 ppm): 0%

COC(=O)C(O)(Cn1cncn1)c1ccc(Oc2ccc(Cl)cc2)cc1Br (stereo not shown) [Azole derivative I-228]
Actual fungal growth inhibition rate (%) (Fusarium fujikuroi; 0.50 ppm): 21%
Actual fungal growth inhibition rate (%) (Fusarium graminearum): 39%
Actual fungal growth inhibition rate (%) (Microdocum nivale; 1.25 ppm): 56%
Actual fungal growth inhibition rate (%) (Microdocum nivale; 5.00 ppm): 86%
Actual fungal growth inhibition rate (%) (Gaeumannomyces graminis; 0.13 ppm): 89%
Actual fungal growth inhibition rate (%) (Gaeumannomyces graminis; 0.31 ppm): 63%
Actual fungal growth inhibition rate (%) (Gaeumannomyces graminis; 1.25 ppm): 67%
Actual fungal growth inhibition rate (%) (Gaeumannomyces graminis; 5.00 ppm): 71%
Actual fungal growth inhibition rate (%) (Glomerella cingulata; Glomerella cingulata, single chemical at 0.01 ppm): 0%
Actual fungal growth inhibition rate (%) (Glomerella cingulata; Glomerella cingulata, single chemical at 0.03 ppm): 16%
Actual fungal growth inhibition rate (%) (Glomerella cingulata; used alone, 0.01 ppm): 2%
Actual fungal growth inhibition rate (%) (Glomerella cingulata; used alone, 0.03 ppm): 12%
Actual fungal growth inhibition rate (%) (Glomerella cingulata; used alone, 0.50 ppm): 82%
Actual fungal growth inhibition rate (%) (Pyrenophora graminea; 0.50 ppm): 84%
Actual fungal growth inhibition rate (%) (Penicillium italicum; Penicillium italicum, single chemical at 0.13 ppm): 56%

CO/C=C(/C(=O)OC)c1ccccc1Oc1cc(Oc2ccccc2C#N)ncn1 [Azoxystrobin, azoxystrobin, reference compound]
Actual controlling rate ([1]; 1.25 g/ha): 47%

COC(=O)Nc1nc2ccccc2[nH]1 [Carbendazim, carbendazim]
inhibition at 0.625 ppm (Pyrenophola teres): 0%
inhibition at 2.5 ppm (Pyrenophola teres): 6%
inhibition at 10 ppm (Pyrenophola teres): 13%
inhibition at 40 ppm (Pyrenophola teres): 14%

Cc1cccc(-n2nnn(C)c2=O)c1COc1ccn(-c2ccc(Cl)cc2)n1 [Metyltetraprole, metyltetraprole]
Actual fungal growth inhibition rate (%) (Pyrenophora graminea; 0.001 ppm): 0%
Actual growth inhibition rate ([2]; 0.08 ppm): 6%
Actual growth inhibition rate ([2]; 0.4 ppm): 73%
Actual growth inhibition rate ([2]; 2.0 ppm): 91%
Actual growth inhibition rate (Cercospora beticola; 0.08 ppm): 72%

OC(Cc1ccccc1Cl)(Cn1nc[nH]c1=S)C1(Cl)CC1 (stereo not shown) [Prothioconazole, prothioconazole, reference compound]
inhibition at 0.01 ppm (Fusarium graminearum; [5]): 1%
inhibition at 0.03 ppm (Fusarium graminearum; [5]): 19%
inhibition at 0.13 ppm (Microdocum nivale; 0.13 ppm, read-out: Actual fungal growth inhibition rate (%)): 13%
inhibition at 0.13 ppm (Gaeumannomyces graminis; [7]): 0%
inhibition at 0.5 ppm (Gaeumannomyces graminis; [9]): 36%
inhibition at 0.01 ppm (Glomerella cingulata; used alone, 0.01 ppm): 0%
inhibition at 0.03 ppm (Glomerella cingulata; used alone, 0.03 ppm): 1%
inhibition at 0.13 ppm (Glomerella cingulata; used alone, 0.13 ppm): 0%
inhibition at 0.5 ppm (Glomerella cingulata; used alone, 0.50 ppm): 24%
inhibition at 0.5 ppm (Pyrenophora graminea; [8]): 54%
inhibition at 0.13 ppm (Penicillium italicum; Penicillium italicum, used alone, 0.13 ppm, read-out: Actual fungal growth inhibition rate (%)): 18%
inhibition at 0.13 ppm (Penicillium italicum; Penicillium italicum, single chemical at 0.13 ppm, read-out: Actual fungal growth inhibition rate (%)): 19%
inhibition at 0.13 ppm [3, 10]: 48%

CON(C(=O)c1cn(C)nc1C(F)F)C(C)Cc1c(Cl)cc(Cl)cc1Cl (stereo not shown) [Pydiflumetofen, pydiflumetofen, reference compound]
Actual controlling rate ([1]; 0.63 g/ha): 11%
Actual controlling rate ([1]; 1.25 g/ha): 44%
Actual controlling rate ([1]; 2.5 g/ha): 44%
Actual controlling rate ([1]; 5 g/ha): 67%
Actual controlling rate ([1]; 10 g/ha): 83%

CON=C(C(=O)OC)c1ccccc1CON=C(C)c1cccc(C(F)(F)F)c1 [Trifloxystrobin, trifloxystrobin, reference compound]
inhibition at 0.002 ppm (Fusarium fujikuroi; Fusarium fujikuroi, 0.002 ppm, read-out: Actual fungal growth inhibition rate (%)): 0%
inhibition at 0.01 ppm (Fusarium fujikuroi; [4]): 10%
inhibition at 0.03 ppm (Microdocum nivale; 0.03 ppm, read-out: Actual fungal growth inhibition rate (%)): 65%
inhibition at 0.002 ppm (Gaeumannomyces graminis; Gaeumannomyces graminis, 0.002 ppm, read-out: Actual fungal growth inhibition rate (%)): 8%
inhibition at 0.03 ppm (Gaeumannomyces graminis; [6]): 5%
inhibition at 0.13 ppm (Gaeumannomyces graminis; [7]): 11%
inhibition at 0.5 ppm (Gaeumannomyces graminis; [9]): 15%
Actual fungal growth inhibition rate (%) (Gaeumannomyces graminis; 0.50 ppm): 9%
inhibition at 0.5 ppm (Glomerella cingulata; used alone, 0.50 ppm): 46%
inhibition at 0.13 ppm (Pyrenophora graminea; Pyrenophora graminea, 0.13 ppm, read-out: Actual fungal growth inhibition rate (%)): 54%
inhibition at 0.5 ppm (Pyrenophora graminea; [8]): 54%
Actual fungal growth inhibition rate (%) (Pyrenophora graminea; 0.50 ppm): 55%
inhibition at 0.5 ppm (Penicillium italicum; Penicillium italicum, used alone, 0.50 ppm, read-out: Actual fungal growth inhibition rate (%)): 90%
inhibition at 0.13 ppm [3, 10]: 48%
